From patent US20230111910A1, “PD-1/PD-L1 INHIBITOR, PREPARATION METHOD THEREFOR, AND USE THEREOF” (SHANGHAI SYNERGY PHARMACEUTICAL SCIENCES CO., LTD., priority 2020, published 2023)
Counter-ions that a name gives are not always drawn. Like-named read-outs stand apart in the source and are kept apart here.

Tests used:
[1] = Pharmacokinetic experiment in rats, LC/MS/MS; assay type: in vivo; details: SD rats; for AUC: read-out: Area under the curve (AUC, ng/mL.h)
Method: Taking SD rats as an example, the drug concentrations in the plasma of rats at different times after i.g. and i.v. administration of compounds of Examples 1, 5, 6, 8, 12, 13, 15, 18, 19, 22, 25, 27 and 29, respectively, were determined by the liquid chromatography-tandem mass spectrometry (LS/MS/MS) method, and the relevant pharmacokinetic parameters were calculated to evaluate the pharmacokinetic properties of example compounds of the present invention in rats.
Healthy adult SD rats, SPF grade, male, purchased from Sippe-Bk Lab Animal Co., Ltd., Shanghai, license number SCXK (Shanghai) 2018-0006, animal certificate number: 20180006006321.
A certain amount of compound was weighed, dissolved in 5% dimethyl sulfoxide (DMSO), subjected to vortex and sonication, added with 0.5% sodium carboxymethyl cellulose (CMC-Na), and sonicated, to prepare a homogeneous solution.
Before administration and 5 min, 15 min, 0.5 h, 1 h, 2 h, 4 h, 6 h, 8 h and 24 h after administration, orbital blood was collected, 0.2 milliliters (mL) of blood being collected each time, and placed in an anticoagulant tube, mixed well, and stored in a −20° C. refrigerator for later use.
The content of the compound in rat whole blood was determined by liquid chromatography-tandem mass spectrometry (LS/MS/MS).
The pharmacokinetic parameters of the compounds after administration were calculated using the non-compartmental model of WinNonLin5.3 software.

[2] = test system: mouse colon cancer MC38-hPD-L1; test: In vivo efficacy in mice, MC38-hPD-L1 subcutaneous tumor model; details: 50 mg/kg i.g., twice a day, MC38-hPD-L1 in C57BL/6 mice
From the text: Under sterile conditions, mouse colon cancer MC38-hPD-L1 in logarithmic growth phase was digested into single cells and then transplanted into the right back of C57BL/6 mice subcutaneously. Each mouse was inoculated with 1×10^6 cells in a volume of […] (μL). After inoculation, when the tumor grows to 100 cubic millimeters (mm^3), the mice were randomly divided into 9 groups, with 8 mice in each group, for drug efficacy experiments. The positive control was human programmed death receptor ligand (PD-L1) antibody. The negative control group was given the same amount of vehicle.
C57BL/6 mice, SPF grade, 6-8 weeks old, female, purchased from Beijing Vital River Laboratory Animal Technology Co., Ltd., license number SCXK […] 2017-0011, animal certificate number: 20170011003865.
An appropriate amount of compound was weighted, dissolved in 5% dimethyl sulfoxide (DMSO), subjected to vortex and sonication, added with 0.5% sodium carboxymethyl cellulose (CMC-Na), and sonicated, to prepare a solution of 5 mg per milliliter (mg/mL).

[3] = Acute toxicity test in mice, single dose, 14 days observation; assay type: in vivo; details: both sexes, mouse, in vivo; ICR mice, single administration; read-out: median lethal dose (LD50)
Method: (§1) This experiment aims to test the toxic effects of the compounds in mice.
(§2) ICR mice, SPF grade, 6-8 weeks old, half male and half […], purchased from Sippe-Bk Lab Animal Co., Ltd., Shanghai, license number SCXK (Shanghai) 2018-0006, animal certificate number: 20180006010983.
(§3) ICR mice were administered different doses of compounds at a single time, and were continuously observed for 14 days. The animal death, poisoning reaction, body weight change, diet, appearance, behavior, etc. were recorded. At the end point, the animals were dissected, and the organs were taken for histopathological examination.

[4] = test system: ICR mice; test: as above; assay type: in vivo; details: within 14 days from administration
Method: as §1, §2, §3

SMILES | Tumor growth inhibition rate [2] | LD50 at 14 days [3] | body weight and behavior compared with control group [4] | further results
Cc1c(NC(=O)c2nc3c(n2C)CCN(CC(C)O)C3)cccc1-c1nccc(NC(=O)c2nc3c(n2C)CCN(C)C3)c1Cl (stereo not shown) [Example 15] | 86% | – | – | Area under the curve (AUC, ng/mL.h) ([1]; i.v., 2 mg/kg): 599.36 ng·h/mL; Half life (T1/2, h) ([1]; i.v., 2 mg/kg): 1.76 h; Bioavailability (F%) ([1]; p.o. 10 mg/kg vs i.v. 2 mg/kg): 58%; Area under the curve (AUC, ng/mL.h) ([1]; p.o. (i.g.), 10 mg/kg): 1618.28 ng·h/mL; Blood concentration (Cmax, ng/mL) ([1]; p.o. (i.g.), 10 mg/kg): 377.6 ng/mL
Cc1c(NC(=O)c2nc3c(s2)CN(C)CC3)cccc1-c1cncc(-c2nc3cc(CN4CC[C@@H](C(=O)O)C4)cc(Cl)c3o2)c1C [Example 9] | 78% | > 1000 mg/kg | no abnormal body weight or behavior | –
Cc1c(NC(=O)c2nc3c(n2C)CCN(C[C@H](C)O)C3)cncc1-c1cccc(NC(=O)c2nc3c(n2C)CCN(C2COC2)C3)c1Cl [Example 23, (S)—N-(5-(2-chloro-3-(1-methyl-5-(oxetan-3-yl)-4,5,6,7-tetrahydro-1H-imidazo[4,5-c]pyridine-2-carboxamido)phenyl)-4-methylpyridin-3-yl)-5-(2-hydroxypropyl)-1-methyl-4,5,6,7-tetrahydro-1H-imidazo[4,5-c]pyridine-2-carboxamide] | 81% | – | – | –
Cc1c(NC(=O)c2nc3c(n2C)CCN(C[C@H](C)O)C3)cncc1-c1cccc(-c2nc3cc(CN4CC[C@@H](C(=O)O)C4)cc(Cl)c3o2)c1C [Example 30, (R)-1-(((7-chloro-2-(3-(5-(5-((S)-2-hydroxypropyl))-1-methyl-4,5,6,7-tetrahydro-1H-imidazo[4,5-c]pyridine-2-carboxamido)-4-methylpyridin-3-yl)-2-methylphenyl)benzo[d]oxazole-5-yl)methyl)pyrrolidine-3-carboxylic acid] | 79% | > 1000 mg/kg | no abnormal body weight or behavior | –
Cc1c(Nc2nccc3cc(CN4CC[C@@H](O)C4)cnc23)cccc1-c1cncc(-c2nc3cc(CN4CC[C@@H](C(=O)O)C4)cc(Cl)c3o2)c1C [Example 11, (R)-1-(((7-chloro-2-(5-(3-((3-((((R)-3-hydroxypyrrolidin-1-yl)methyl)-1,7-naphthyridin-8-yl)amino)-2-methylphenyl)-4-methylpyridin-3-yl)benzo[d]oxazol-5-yl)methyl)pyrrolidine-3-carboxylic acid trifluoroacetate] | 85% | > 1000 mg/kg | no abnormal body weight or behavior | –
CCN1CCc2c(nc(C(=O)Nc3cncc(-c4cccc(NC(=O)c5nc6c(n5C)CCN(CC)C6)c4Cl)c3C)n2C)C1 [Example 27, N-(2-chloro-3-(5-(5-ethyl-1-methyl-4,5,6,7-tetrahydro-1H-imidazo[4,5-c]pyridine-2-carboxamido)-4-methylpyridin-3-yl)phenyl)-5-ethyl-1-methyl-4,5,6,7-tetrahydro-1H-imidazo[4,5-c]pyridine-2-carboxamide] | 80% | – | – | AUC ([1]; male, rat, whole blood, iv, i.v., 2 mg/kg): 637 ng·h/mL; half-life ([1]; male, rat, whole blood, iv, i.v., 2 mg/kg, read-out: Half life (T1/2, h) (converted)): 2.26 h; bioavailability ([1]; male, rat, whole blood, po, p.o. 10 mg/kg vs i.v. 2 mg/kg, read-out: Bioavailability (F%)): 46%; AUC ([1]; male, rat, whole blood, po, p.o. (i.g.), 10 mg/kg): 1460 ng·h/mL; Cmax ([1]; male, rat, whole blood, po, p.o. (i.g.), 10 mg/kg, read-out: Blood concentration (Cmax, ng/mL)): 423 ng/mL
Cc1c(NC(=O)c2nc3c(s2)CN(C)CC3)cccc1-c1cccc(-c2nc3cc(CN4CC[C@@H](C(=O)O)C4)cnc3o2)c1C [Example 4, (R)-1-(((2-(2,2′-dimethyl-3′-(5-methyl-4,5,6,7-tetrahydrothiazolo[5,4-c]pyridine-2-carboxamido))-[1,1′-biphenyl]-3-yl)oxazolo[5,4-b]pyridin-6-yl)methyl)pyrrolidine-3-carboxylic acid] | 82% | > 1000 mg/kg | no abnormal body weight or behavior | –
